# According to patent publication US20150157648A1, “NUTRITIONAL APPROACH TO IMPROVING ATHLETIC PERFORMANCE AND REDUCING INJURY WITH L-ERGOTHIONEINE AND/OR VITAMIN D2” (priority 2012, published 2015):
# Key:
# [1] = after mushroom consumption, healthy men; cited from earlier work
# Drosophila melanogaster = experiment: survival of Drosophila under Paraquat-induced oxidative stress; type: in vivo; conditions: for effect on Paraquat-induced oxidative stress (in words): single nutrient, pure form
# Method: The effect of Agaricus Blazei without enrichment, with Vitamin D2 enrichment, pure Vitamin D2 and control (vehicle for the delivery) on the survival rate of Drosophila melanogaster under Paraquat-induced oxidative stress condition was tested. The study focused on the control of Paraquat induced oxidative stress/biologic death. Paraquat is a very potent oxidative stress inducing chemical and causes death in animals and plants by the toxicity of released free radicals. Paraquat (10 mM concentration) (Sigma Aldrich) was used to chemically induce oxidative stress. Paraquat is the trade name for N,N′-dimethyl-4,4′-bipyridinium dichloride, a widely used herbicide. Paraquat, a viologen, is quick-acting and non-selective, killing green plant tissue on contact. It is also toxic to humans when swallowed. This is the most standard chemical used in experimental induction of oxidative stress using the Drosophila model system. It catalyzes the formation of reactive oxygen species (ROS). Paraquat will undergo redox cycling in vivo, gets reduced by an electron donor such NADPH, before being oxidized by an electron receptor such as dioxygen to produce superoxide, a major ROS.
# The following materials and methods were utilized. Vials containing 10 mM Paraquat (from Sigma Aldrich) in 5 ml of 1.2% Low melting point Agarose medium were prepared. A strip of half moist filter paper was inserted in the medium (with the wet end in). Yeast paste containing 1% concentration (w/w) of the various test materials (see above) mixed to homogeneity was prepared. Yeast paste without drug was used as control. Uniform aliquot (˜300 mg) of yeast paste with or without the test material) was applied to vials in such a way that yeast paste was on the glass surface and covered the dry end (top) of the filter paper strip. Freshly enclosed wild type isogenized Canton-S males and females were collected and starved on 1% agar medium for 5-6 hours. […] Flies were transferred once in 2 days and the number of flies surviving at each transfer was recorded.
# [2] = system: Alzheimer's disease mutant fruit fly; experiment: survival and life span of Alzheimer's disease (APP over-expression) Drosophila model; type: in vivo; conditions: APP induced in central brain by GAL4 driver
# Description: Type of Model (with specific Drosophila model of neurodegeneration, with references). The targeted over/ectopic expression of APP in the brain using a UAS promoter driven APP transgene, induced by a specific GAL4 trans-driver in the brain of a Drosophila model system, was used for this Example. Below is a reference for such over-expression of APP in the Drosophila model system and the combination gives a fully penetrant AD with limited life-span.
# β-Amyloid peptides and amyloid precursor protein (APP) play a deterministic role in Alzheimer's disease (AD). In Drosophila, the targeted expression of the key genes of AD, APP, causes generation of β-amyloid plaques and age-dependent neurodegeneration as well as progression to semi lethality, a shortened life span; genetic manipulations or pharmacological treatments with secretase inhibitors influenced the activity of the APP-processing proteases and modulated the severity of the phenotypes (Greeve I., et al., J. Neuroscience 24, 3899-3906 (2004)). The AD strain lives only for a few days after their eclosion (birth) as opposed to 65 days or more for wild type normal strains.
# We determined the extension of life span in the mutant strain for each test compound. We used a specific GAL4 driver that induces the APP gene in the central brain area at high levels (see above) and results in a fully penetrant lethality within a 2-3 weeks period.
# alpha-synuclein = alpha-synuclein ELISA of plasma, cortex and midbrain of SNCA transgenic mice; type: in vivo, mouse; conditions: three months of diet; untreated controls 2.52±0.28
# Description: Matched cohorts of an SNCA transgenic mouse model of PD were used to measure the therapeutic efficacy of the medical food formulation ErgoD2TM, created from a single mushroom species, Pleurotus […]. The outcomes measurements assessed improvement in grip strength and alpha-synuclein levels in the cortex and/or midbrain of the PD animals. […] No detectable motor behavior impairments, autonomic abnormalities, olfactory dysfunction, dopaminergic deficits, Lewy body inclusions or neurodegeneration are associated with α-synuclein expression in these mice (Kuo et al., 2010). As outlined in the results section, the mice were grouped at ten (10) mice/cohort and were fed a purina diet for three months with and without addition of the medical food ErgoD2TM, provided by Entia Biosciences, Inc. Three (3) test diets were created with the assistance of Carrie Schultz, Ph.D., Land O'Lakes Purina Feed, and each diet was color-coded. […] Alpha-synuclein was measured using an ELISA kit (Invitrogen, Hu α-Synuclein ELISA Kit) according to the manufacturer's protocol. The α-synuclein concentration of each 1 mL homogenized midbrain lysate was calculated by interpolating absorbance readings to a standard curve and adjusting for necessary dilution factors and protein equivalencies. The mean α-synuclein concentration of the samples in each treatment group was then calculated. […]
# IL-6 = IL-6 ELISA of whole blood cell lysate from alpha synuclein transgenic mice; type: in vivo; conditions: one remaining sample per treatment group
# Method: We pursued this effect in our mice since the role of IL-6 and other neuroimmune factors need to be elucidated on PD. Alpha synuclein transgenic mice expressing the human gene for alpha-synuclein were treated with the medical food ErgoD2™ (Pleurotus; Table 3) or N-Acetylcysteine (NAC), and whole blood cell lysate samples from these mice were evaluated in triplicate using an ELISA for the presence of IL-6. The results were compared to those from untreated and wild-type controls.
# A serial dilution of provided standard solution allowed for the creation of a standard curve following absorbency reading. An exponential regression of this curve was used to extrapolate the concentration of IL-6 in the lysate samples based on their final absorbency values and accounting for dilution factors of the samples.
# Lysate samples taken from subjects #222 and #321 were clotted. A small amount of each was used during assay, but their relatively high corresponding dilution factors call into question the findings based on these samples.
# glutathione (GSH) = experiment: kinetic assay of plasma glutathione (GSH) in Pac-Tg (SNCA) transgenic mice; type: in vivo; conditions: trend only: p=0.10 (Pleurotus), p=0.09 (NAC)
# Method: Our Pac-Tg (SNCA) mice transgenic mice express the human gene for human alpha-synuclein and these were assigned one of four treatment paradigms (including no treatment). Plasma samples taken from these mice were evaluated in duplicate using a kinetic assay protocol for the presence of glutathione (GSH), a measure of resilience to oxidative stress. The tested subject groups were treated with one of the following: Blazei Mushroom, Pleurotus mushroom, or n-acetyl cysteine (NAC). The results for these groups were compared to those for both untreated and wild-type controls.
# Data. A serial dilution of provided standard solution allowed for the creation of a standard curve following kinetic absorbance readings (FIGS. 6A and B). The change in absorbance (Vmax) over five minutes (six absorbance readings) was calculated for each standard and plotted against each standard's known GSH concentration. […] The change in absorbance for the second standard was calculated using only the first two kinetic readings (t=0, t=1) for the same reason. […] A linear regression of the resulting standard curve allowed for extrapolation of GSH levels in the assayed plasma samples based on their changes in absorbance (Vmax) over six minute-reads.
# Following tabulation of the data, results were omitted if they were not reproducible in duplicate using all six kinetic readings and within 30% precision. […]
# [3] = system: SNCA transgenic mouse model of PD; experiment: grip strength task in SNCA transgenic mouse model of PD; type: in vivo; conditions: PD model mice, three months of treatment
# Description: Matched cohorts of an SNCA transgenic mouse model of PD were used to measure the therapeutic efficacy of the medical food formulation ErgoD2TM, created from a single mushroom species, Pleurotus […]. The outcomes measurements assessed improvement in grip strength and alpha-synuclein levels in the cortex and/or midbrain of the PD animals. […] No detectable motor behavior impairments, autonomic abnormalities, olfactory dysfunction, dopaminergic deficits, Lewy body inclusions or neurodegeneration are associated with α-synuclein expression in these mice (Kuo et al., 2010). As outlined in the results section, the mice were grouped at ten (10) mice/cohort and were fed a purina diet for three months with and without addition of the medical food ErgoD2TM, provided by Entia Biosciences, Inc. Three (3) test diets were created with the assistance of Carrie Schultz, Ph.D., Land O'Lakes Purina Feed, and each diet was color-coded. The control/placebo mouse diet consisted of Purina Modified LabDiet® (RMH 3000). The two treatment diets were RMH 3000 supplemented with (i) synthetic N-Acetyl Cysteine (NAC) @ 0.015% of total weight and (ii) the medical food ErgoD2TM @ 0.5% of total weight. […] The mouse is then pulled back gently until the grip is released and peak force at the point of release is recorded in Kg. […]
structure (smiles),measurement,setting,value
"C[N+](C)(C)[C@@H](Cc1c[nH]c(=S)[nH]1)C(=O)[O-] [ET, L-Ergothioneine]",time to peak of ET in red blood cells (RBC),[1],2 h
"C=C1CC[C@H](O)C/C1=C/C=C1\CCC[C@]2(C)[C@@H]([C@H](C)CCCC(C)C)CC[C@@H]12 [Vitamin D3, cholecalciferol]",effect on Paraquat-induced oxidative stress (in words),Drosophila melanogaster,no beneficial effect
same,survival rate of AD flies versus control,[2],no such effect
"CC(=O)N[C@@H](CS)C(=O)O [NAC, N-Acetylcysteine]",mean midbrain α-synuclein concentration,alpha-synuclein,2.17 ± 0.31 µg/mL
same,IL-6 more than the untreated group,IL-6,8.7 pg/mL
same,IL-6 more than the wild-type group,IL-6,9.5 pg/mL
same,plasma glutathione concentration vs. untreated mice,glutathione (GSH),higher concentrations of glutathione
same,grip testing (in words),[3],statistically significant improvement
"C=C1CC[C@H](O)C/C1=C/C=C1\CCC[C@]2(C)[C@@H]([C@H](C)/C=C/[C@H](C)C(C)C)CC[C@@H]12 [pure Vitamin D2, Ergocalciferol]",survivability under Paraquat-induced oxidative stress,"Drosophila melanogaster; 10 mM Paraquat, 1% (w/w) test material in yeast paste, 10 days, 25 degrees C",13%+/−3%
same,effect on Paraquat-induced oxidative stress (in words),Drosophila melanogaster,no beneficial effect
same,survival rate of AD flies versus control,[2],no such effect
